Assay results from patent US10039839B2, “Compounds that participate in cooperative binding and uses thereof” (Warp Drive Bio, Inc., priority 2015, dated 2018).
Square brackets hold non-standard residues; d marks the D form. Peptide text beside a SMILES is read from it. MeBmt = C/C=C/C[C@@H](C)[C@@H](O)[C@H](NC)C(=O)O; NMeI = CC[C@H](C)[C@H](NC)C(=O)O; NMeL = CN[C@@H](CC(C)C)C(=O)O; Tle = CC(C)(C)[C@H](N)C(=O)O; NMeV = CN[C@H](C(=O)O)C(C)C; NMeA = CN[C@@H](C)C(=O)O; dNMeA = CN[C@H](C)C(=O)O; Abu = CC[C@H](N)C(=O)O; Sar = CNCC(=O)O

Biological target: T1, Cyclophilin A (Homo sapiens, UniProt P62937)
T1 construct: made in house
Test: biochemical
Type: binding
Settings: not given
Protocol: This protocol utilizes Perkin Elmers AlphaLISA technology platform to detect cyclosporine analogues by measuring the inhibition of binding of biotinylated Cyclosporin A to FLAG tagged Cyclophilin A.
Add 20 uL of 6 nM Biotinylated CsA working stock to each well of the 96-well plate. Add 1 uL of test compound (100% DMSO) to each well of the plate using the Janus MTD head and P20 tips (except control wells). Add 1 uL of DMSO to negative control wells and 1 uL of 500 uM Cyclosporin A solution to positive control wells. In the dark, add 20 uL of combined Donor/Acceptor beads to each well. Incubate in the dark for 30 minutes at room temperature. […] Incubate in the dark for 60 minutes at room temperature.

T1 sequence (P62937 whole entry, species assumed): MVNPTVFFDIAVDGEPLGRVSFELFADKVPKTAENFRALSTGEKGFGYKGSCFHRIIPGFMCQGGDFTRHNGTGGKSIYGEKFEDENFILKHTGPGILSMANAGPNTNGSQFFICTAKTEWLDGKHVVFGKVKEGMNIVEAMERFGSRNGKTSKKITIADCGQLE

Question: C/C=C/C[C@@H](C)[C@@H](O)[C@H]1C(=O)N[C@@H](CC)C(=O)N(C)CC(=O)N(C)[C@@H]([C@@H](C)CC)C(=O)N[C@@H](C(C)C)C(=O)N(C)CC(=O)N[C@@H](C)C(=O)N[C@H](C)C(=O)N(C)[C@@H](CC(C)C)C(=O)N(C)[C@@H](CC(C)C)C(=O)N(C)[C@@H](C(C)C)C(=O)N1C [C25] (cyclo([MeBmt][Abu][Sar][NMeI]V[Sar]A[dA][NMeL][NMeL][NMeV])) was tested. Which “% inhibition of CsA binding to Cyclophilin A” value (from here on “% inhibition of CsA binding”) did it give?
Answer: 99.63%

Question: Which “% inhibition of CsA binding” value does the source give for C/C=C/C[C@@H](C)[C@@H](O)[C@H]1C(=O)N[C@@H](CC)C(=O)N(C)CC(=O)N(C)[C@@H](C(C)C)C(=O)N[C@@H](C(C)(C)C)C(=O)N(C)[C@@H](C)C(=O)N[C@@H](CC(C)C)C(=O)N[C@H](C)C(=O)N(C)[C@@H](CC(C)C)C(=O)N(C)[C@@H](CC(C)C)C(=O)N(C)[C@@H](C(C)C)C(=O)N1C [C77] (cyclo([MeBmt][Abu][Sar][NMeV][Tle][NMeA]L[dA][NMeL][NMeL][NMeV])) here?
Answer: 99.56%

Question: How did the “% inhibition of CsA binding” value turn out when C/C=C/C[C@@H](C)[C@@H](O)[C@H]1C(=O)N[C@@H](CC)C(=O)N(C)CC(=O)N(C)[C@H](C)C(=O)N[C@@H](C(C)C)C(=O)N(C)[C@@H](C)C(=O)N[C@@H](CC(C)C)C(=O)N[C@H](C)C(=O)N(C)[C@@H](CC(C)C)C(=O)N(C)[C@@H](CC(C)C)C(=O)N(C)[C@@H](C(C)C)C(=O)N1C [C83] (cyclo([MeBmt][Abu][Sar][dNMeA]V[NMeA]L[dA][NMeL][NMeL][NMeV])) was run?
Answer: 99.35%

Test system: HeLa-FKBP12 cells
Test: Biosensor cell permeability assay, FKBP binding compounds
Type: cell-based
Settings: 72 hrs
Protocol: This protocol utilizes a modified FKBP or cyclophilin destabilizing mutant to determine the bioactivity of FKBP binding compounds or cyclophilin binding compounds in whole cell assay.
Plate HeLa-FKBP12 cells (for FKBP binding compounds) or HeLa-Cyclophilin A cells (for cyclophilin binding compounds) and seed overnight at 5 k/well (approximately ˜18 hrs.). Using a multi-channel pipet, take out the old media and add ˜125 ul of new media with compounds. Compounds are diluted using DMEM without Phenol Red, 10% FBS, 1× Sodium Pyruvate, 1× Glutamax. Add 125 ul of media with compound per well. Cells are treated with compounds at concentration: 30, 10, 3.33, 1.11, 0.37, 0.12, 0.04 and 0.013 uM. Time points are taken at 72 hrs and plate read using plate reader with excitation/emission: 575/620.
Cell binding/permeability is calculated in fold-change (Total RFU of treated samples/total RFU of DMSO treated samples or total RFU above background (Total RFU minus total RFU of DMSO treated samples).

Question: For CC[C@H](Cc1ccccc1)[C@@H]1/C=C/C=C/CC[C@@H](C)C(=O)[C@@H](C)[C@@H]2CC[C@@H](C)[C@@](O)(O2)C(=O)C(=O)N2CCCC[C@H]2C(=O)O1 [F22], which IC50 is on record?
Answer: > 1000 nM

Question: How did the IC50 turn out when CCC(/C=C(\C)C(O)CCC(C)/C=C/C(O)C(C)C1CCC(C)C(O)(C(=O)C(=O)N2CCCCC2C(=O)O)O1)C/C(C)=C/c1ccc(O)c(O)c1 (centres unmarked) [F18] was run?
Answer: < 1000 nM

Question: CC[C@H](Cc1cccc(O)c1)[C@@H]1/C=C/C=C/CC[C@@H](C)[C@H](O)[C@@H](C)[C@@H]2CC[C@@H](C)[C@@](O)(O2)C(=O)C(=O)N2CCCC[C@H]2C(=O)O1 [F21] was tested. Which IC50 did it give?
Answer: < 1000 nM

Question: Which IC50 does the source give for CC[C@H](Cc1ccccc1)[C@@H]1/C=C/C/C=C/C[C@@H](C)[C@H](O)[C@@H](C)[C@@H]2CC[C@@H](C)C(=O)C(O)(O2)C(=O)N2CCC[C@H]2C(=O)O1 [F4] here?
Answer: < 1000 nM

Question: Which IC50 does the source give for CC[C@H](Cc1cccc(O)c1)[C@@H]1/C=C/C/C=C/C[C@@H](C)[C@H](O)[C@@H](C)[C@@H]2CC[C@@H](C)C(=O)C(O)(O2)C(=O)N2CCCC[C@H]2C(=O)O1 [F20] here?
Answer: < 1000 nM

Biological target: FKBP12 (Homo sapiens, UniProt P62942)
Test: AlphaLISA: inhibition of binding of biotinylated FK506 to FLAG tagged FKBP12
Design: made in house
Settings: not given
Protocol: This protocol utilizes Perkin Elmers AlphaLISA technology platform to detect FKBP binders by measuring the inhibition of binding of biotinylated FK506 to FLAG tagged FKBP12.
Add 20 uL of 12.5 nM FKBP-FLAG working stock to each well of the 96-well plate. Add 1 uL of test compound (100% DMSO) to each well of the plate using the Janus MTD head and P20 tips (except control wells). Add 1 uL of DMSO to negative control wells and 1 uL of 50 uM FK506 solution to positive control wells. In the dark, add 20 uL of combined Donor/Acceptor beads to each well. Incubate in the dark for 30 minutes at room temperature. In the dark, add 10 uL of 5 nM biotinylated FK506 working stock to each well. Incubate in the dark for 60 minutes at room temperature. Protect plate from light until reading on Biotek Synergy2 Plate Reader; Alphalisa 96-well protocol (680 excitation/615 emission).

Chain of FKBP12 (P62942 whole entry, species assumed): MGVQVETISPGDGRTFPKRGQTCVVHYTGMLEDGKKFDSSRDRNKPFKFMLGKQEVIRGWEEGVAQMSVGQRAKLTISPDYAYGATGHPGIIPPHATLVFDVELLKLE

Question: CCC(/C=C(\C)C(O)CCC(C)/C=C/C(O)C(C)C1CCC(C)C(O)(C(=O)C(=O)N2CCCCC2C(=O)O)O1)C/C(C)=C/c1ccc(O)c(O)c1 (centres unmarked) [F18] was tested. Which IC50 did it give?
Answer: 229 nM

Question: Which IC50 does the source give for CCC(/C=C(\C)C(O)CCC(C)/C=C/C(O)C(C)C1CCC(C)C(O)(C(=O)C(=O)N2CCCCC2C(=O)O)O1)C/C(C)=C/C1=CC(OC)C(O)C=C1 (centres unmarked) [F15] here?
Answer: 1930 nM

Same assay, conditions: read-out: Binding affinity to FKBP12 (by displacement of FK506)

Question: For CC[C@H](Cc1ccccc1)[C@@H]1CCCCCC(=O)[C@@H](C)[C@H](O)[C@@H](C)[C@@H]2CC[C@@H](C)[C@@](O)(O2)C(=O)C(=O)N2CCCC[C@H]2C(=O)O1 [F24, (S)-1-(2-((2R,3R,6S)-6-((2R,3R,4S,6E,9E,11R,12R)-12-benzyl-3,11-dihydroxy-4-methyl-5-oxotetradeca-6,9-dien-2-yl)-2-hydroxy-3-methyltetrahydro-2H-pyran-2-yl)-2-oxoacetyl)piperidine-2-carboxylic acid C-11 lactone], which IC50 is on record?
Answer: 0.21 nM
